GI50 and TGI data for 9 compounds are collected here from PubChem BioAssay (NCI).

Where “and” joins values, the source holds several entries; their conditions need not be identical. Identical values can stand only once.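 Briefly, cells in 96-well plates were exposed to five compound concentrations for 48 h, and endpoints were estimated by linear interpolation. The concentration for 50% growth inhibition is given as GI50. TGI marks complete inhibition of growth.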 A value given as a limit tells only on which side of the number the result lay.

Among the test systems are HT29 colon; K-562 leukemia; KM12 colon; LOX IMVI melanoma; MALME-3M melanoma; RXF 393 renal; SF-295 CNS; TK-10 renal; UACC-257 melanoma; UO-31 renal.
Common to all, as to test: NCI tumour cell line growth inhibition, 48 h

For `COc1cc2c3c(n(CCCn4cccn4)c(=O)c2cc1OC)-c1cc2c(cc1C3=O)OCO2`, the GI50 in the test with HT29 colon is 2.56 µM; with K-562 leukemia, 3.51 µM; in the test on KM12 colon, 5.11 µM; in the test on LOX IMVI melanoma, 0.728 µM; in the test on MALME-3M melanoma, 9.4 µM; in the test on RXF 393 renal, 5.76 µM. The GI50 is 0.581 µM with SF-295 CNS, 35.1 µM in the test with TK-10 renal, 9.92 µM in the test with UACC-257 melanoma and 0.962 µM with UO-31 renal. Also, the TGI with HT29 colon is 25.4 µM; with K-562 leukemia, > 100 µM; in the test with KM12 colon, > 54.5 µM; in the test on LOX IMVI melanoma, 11.1 µM; in the test on MALME-3M melanoma it was > 96.7 µM; in the test on RXF 393 renal, 27.7 µM. Also, the TGI in the test on SF-295 CNS was 32 µM; in the test on TK-10 renal, > 100 µM; in the test on UACC-257 melanoma, > 100 µM; with UO-31 renal, 18.1 µM.

For the compound `CN(C)c1ccc2c(SCC(=O)OCC(=O)[C@@]3(O)CC[C@H]4[C@@H]5CCC6=CC(=O)C=C[C@]6(C)[C@H]5C(=O)C[C@@]43C)c3ccc(N(C)C)cc3nc2c1`, the TGI with HT29 colon is 25.4 µM; in the test with K-562 leukemia, > 70.4 µM; with KM12 colon, > 100 µM; in the test with LOX IMVI melanoma it was > 100 µM; with MALME-3M melanoma, > 100 µM; in the test with RXF 393 renal, > 57 µM. Moreover, the TGI in the test on SF-295 CNS was > 100 µM; in the test on TK-10 renal, 48.8 µM; in the test on UACC-257 melanoma, > 77.5 µM; in the test on UO-31 renal it was 24.8 µM.

Turning to `CCCCCCCCCCCCCCCC[N+](C)(C)C`, the GI50 in the test with HT29 colon was 0.0658 µM and 0.516 µM; in the test with K-562 leukemia it was 0.163 µM and 1.17 µM; in the test with KM12 colon, 1.36 µM; with MALME-3M melanoma, 1.8 µM; in the test with RXF 393 renal it was 0.0963 µM and 0.235 µM; in the test with SF-295 CNS, 0.305 µM and 0.716 µM. The GI50 is 1.11 µM with TK-10 renal; 0.266 µM and 2.46 µM in the test with UACC-257 melanoma; 0.552 µM and 2.18 µM in the test with UO-31 renal. Further, the TGI was 1.03 µM and 1.97 µM in the test with HT29 colon; 1.1 µM and 2.83 µM with K-562 leukemia; 2.79 µM in the test with KM12 colon; 0.332 µM and 3.07 µM in the test with LOX IMVI melanoma; 5.08 µM in the test with MALME-3M melanoma; 0.244 µM and 0.83 µM in the test on RXF 393 renal. In addition, the TGI is 1.36 µM and 2.38 µM in the test on SF-295 CNS; 2.81 µM in the test with TK-10 renal; 0.942 µM and 6.33 µM in the test on UACC-257 melanoma; 2.27 µM and 10.6 µM with UO-31 renal.

Regarding `CNC1=C(Br)C(=O)C2=C(C1=O)C1C3=C(C(=O)C=CC3=O)C2c2ccccc21` (stereo not drawn), the GI50 was 2.72 µM in the test with HT29 colon; 2.65 µM in the test with K-562 leukemia; 14.4 µM in the test with KM12 colon; 1.74 µM with LOX IMVI melanoma; 6.96 µM in the test with MALME-3M melanoma; 2.57 µM in the test on RXF 393 renal. Moreover, the GI50 was 19.2 µM in the test on SF-295 CNS, 10.8 µM in the test with TK-10 renal, 12.7 µM with UACC-257 melanoma and 6.73 µM in the test with UO-31 renal. In addition, the TGI is > 100 µM in the test with HT29 colon; > 23.7 µM with K-562 leukemia; 48.7 µM with KM12 colon; 4.42 µM in the test on LOX IMVI melanoma; 16.2 µM in the test with MALME-3M melanoma; 4.72 µM in the test on RXF 393 renal. Moreover, the TGI with SF-295 CNS is 45.8 µM; with TK-10 renal it was 34.4 µM; in the test on UACC-257 melanoma, > 100 µM; with UO-31 renal it was 14.4 µM.

With `O=C(Oc1ccccc1Cl)c1cccnc1Nc1ccnc(C(F)(F)F)c1`, the GI50 in the test with HT29 colon was 25.3 µM; with K-562 leukemia, 4.61 µM; in the test with KM12 colon, 14.4 µM; in the test on LOX IMVI melanoma it was 3.96 µM; in the test with MALME-3M melanoma, 8.29 µM; in the test with RXF 393 renal, 19.1 µM. The GI50 is 21.3 µM with SF-295 CNS, 24.7 µM in the test on TK-10 renal, 21.4 µM with UACC-257 melanoma and 14.6 µM in the test with UO-31 renal. The TGI is 71.5 µM in the test with HT29 colon; 27.6 µM in the test on K-562 leukemia; 32.6 µM with KM12 colon; 14.2 µM in the test on LOX IMVI melanoma; 41.1 µM in the test on MALME-3M melanoma; 42.6 µM in the test with RXF 393 renal. Besides, the TGI came to 52.5 µM with SF-295 CNS, 70.7 µM in the test on TK-10 renal, 63.5 µM in the test on UACC-257 melanoma and 32.6 µM with UO-31 renal.

As for `CCOc1ccccc1N=C(NC(=O)CC)SC`, the GI50 in the test on HT29 colon is > 100 µM; with K-562 leukemia, > 100 µM; in the test with KM12 colon, > 100 µM; with LOX IMVI melanoma, > 100 µM; in the test with MALME-3M melanoma it was > 10 µM; in the test on RXF 393 renal it was > 100 µM. Besides, the GI50 with SF-295 CNS, in the test on UACC-257 melanoma and with UO-31 renal was > 100 µM each time. Further, the TGI with HT29 colon, in the test on K-562 leukemia, in the test with KM12 colon, with LOX IMVI melanoma, in the test on MALME-3M melanoma and with RXF 393 renal was > 100 µM throughout. Moreover, the TGI with SF-295 CNS was > 100 µM; in the test with TK-10 renal, > 10 µM; in the test on UACC-257 melanoma, > 100 µM; in the test with UO-31 renal, > 100 µM.

For `C/C(=C\c1ccccc1)C(O)S(=O)(=O)O` (stereo not drawn), the TGI in the test with HT29 colon, in the test with K-562 leukemia, in the test on KM12 colon, in the test on LOX IMVI melanoma, with MALME-3M melanoma and in the test with RXF 393 renal was > 100 µM throughout. For the same compound, the TGI in the test on SF-295 CNS, with TK-10 renal, with UACC-257 melanoma and in the test on UO-31 renal was > 100 µM throughout.

On to `CCOC(=O)NC(=O)c1cn(-c2ccc(CCOC(=O)CCCCCCCCC(=O)OCCc3ccc(-n4cc(C(=O)NC(=O)OCC)c(=O)[nH]c4=O)cc3)cc2)c(=O)[nH]c1=O`, for which the TGI with HT29 colon, with K-562 leukemia, in the test with KM12 colon, with LOX IMVI melanoma, with MALME-3M melanoma and in the test with RXF 393 renal was > 100 µM each time. Moreover, the TGI in the test on SF-295 CNS, with TK-10 renal, in the test with UACC-257 melanoma and in the test on UO-31 renal was > 100 µM throughout.

`NC(CCc1nc(-c2ccccc2)cs1)C(=O)O` (stereo not drawn): the TGI in the test with HT29 colon, in the test with K-562 leukemia, in the test on KM12 colon, in the test on LOX IMVI melanoma, with MALME-3M melanoma and in the test on RXF 393 renal was > 100 µM throughout. The TGI with SF-295 CNS, with TK-10 renal, in the test on UACC-257 melanoma and in the test with UO-31 renal was > 100 µM in each case.
